Where two headings read alike, the source gives them in different places. One block for each compound: values may come before it.
Assays:
Experiment in all cases: Z'-LYTE fluorescence kinase assay, single point
Type in all cases: biochemical
[1] = molecular target: T1, ROCK2 (Homo sapiens, UniProt O75116); settings: read-out: VS2
T1 construct: commercial kinase panel (Z'-LYTE, Thermo Fisher)
From the text: Z'-LYTE fluorescence kinase assay, single point on ROCK2

[2] = molecular target: T2, LRKK2 (Homo sapiens, UniProt Q5S007)
T2 construct: gene LRRK2; commercial kinase panel (Z'-LYTE, Thermo Fisher)
T2 sequence (Q5S007 whole entry): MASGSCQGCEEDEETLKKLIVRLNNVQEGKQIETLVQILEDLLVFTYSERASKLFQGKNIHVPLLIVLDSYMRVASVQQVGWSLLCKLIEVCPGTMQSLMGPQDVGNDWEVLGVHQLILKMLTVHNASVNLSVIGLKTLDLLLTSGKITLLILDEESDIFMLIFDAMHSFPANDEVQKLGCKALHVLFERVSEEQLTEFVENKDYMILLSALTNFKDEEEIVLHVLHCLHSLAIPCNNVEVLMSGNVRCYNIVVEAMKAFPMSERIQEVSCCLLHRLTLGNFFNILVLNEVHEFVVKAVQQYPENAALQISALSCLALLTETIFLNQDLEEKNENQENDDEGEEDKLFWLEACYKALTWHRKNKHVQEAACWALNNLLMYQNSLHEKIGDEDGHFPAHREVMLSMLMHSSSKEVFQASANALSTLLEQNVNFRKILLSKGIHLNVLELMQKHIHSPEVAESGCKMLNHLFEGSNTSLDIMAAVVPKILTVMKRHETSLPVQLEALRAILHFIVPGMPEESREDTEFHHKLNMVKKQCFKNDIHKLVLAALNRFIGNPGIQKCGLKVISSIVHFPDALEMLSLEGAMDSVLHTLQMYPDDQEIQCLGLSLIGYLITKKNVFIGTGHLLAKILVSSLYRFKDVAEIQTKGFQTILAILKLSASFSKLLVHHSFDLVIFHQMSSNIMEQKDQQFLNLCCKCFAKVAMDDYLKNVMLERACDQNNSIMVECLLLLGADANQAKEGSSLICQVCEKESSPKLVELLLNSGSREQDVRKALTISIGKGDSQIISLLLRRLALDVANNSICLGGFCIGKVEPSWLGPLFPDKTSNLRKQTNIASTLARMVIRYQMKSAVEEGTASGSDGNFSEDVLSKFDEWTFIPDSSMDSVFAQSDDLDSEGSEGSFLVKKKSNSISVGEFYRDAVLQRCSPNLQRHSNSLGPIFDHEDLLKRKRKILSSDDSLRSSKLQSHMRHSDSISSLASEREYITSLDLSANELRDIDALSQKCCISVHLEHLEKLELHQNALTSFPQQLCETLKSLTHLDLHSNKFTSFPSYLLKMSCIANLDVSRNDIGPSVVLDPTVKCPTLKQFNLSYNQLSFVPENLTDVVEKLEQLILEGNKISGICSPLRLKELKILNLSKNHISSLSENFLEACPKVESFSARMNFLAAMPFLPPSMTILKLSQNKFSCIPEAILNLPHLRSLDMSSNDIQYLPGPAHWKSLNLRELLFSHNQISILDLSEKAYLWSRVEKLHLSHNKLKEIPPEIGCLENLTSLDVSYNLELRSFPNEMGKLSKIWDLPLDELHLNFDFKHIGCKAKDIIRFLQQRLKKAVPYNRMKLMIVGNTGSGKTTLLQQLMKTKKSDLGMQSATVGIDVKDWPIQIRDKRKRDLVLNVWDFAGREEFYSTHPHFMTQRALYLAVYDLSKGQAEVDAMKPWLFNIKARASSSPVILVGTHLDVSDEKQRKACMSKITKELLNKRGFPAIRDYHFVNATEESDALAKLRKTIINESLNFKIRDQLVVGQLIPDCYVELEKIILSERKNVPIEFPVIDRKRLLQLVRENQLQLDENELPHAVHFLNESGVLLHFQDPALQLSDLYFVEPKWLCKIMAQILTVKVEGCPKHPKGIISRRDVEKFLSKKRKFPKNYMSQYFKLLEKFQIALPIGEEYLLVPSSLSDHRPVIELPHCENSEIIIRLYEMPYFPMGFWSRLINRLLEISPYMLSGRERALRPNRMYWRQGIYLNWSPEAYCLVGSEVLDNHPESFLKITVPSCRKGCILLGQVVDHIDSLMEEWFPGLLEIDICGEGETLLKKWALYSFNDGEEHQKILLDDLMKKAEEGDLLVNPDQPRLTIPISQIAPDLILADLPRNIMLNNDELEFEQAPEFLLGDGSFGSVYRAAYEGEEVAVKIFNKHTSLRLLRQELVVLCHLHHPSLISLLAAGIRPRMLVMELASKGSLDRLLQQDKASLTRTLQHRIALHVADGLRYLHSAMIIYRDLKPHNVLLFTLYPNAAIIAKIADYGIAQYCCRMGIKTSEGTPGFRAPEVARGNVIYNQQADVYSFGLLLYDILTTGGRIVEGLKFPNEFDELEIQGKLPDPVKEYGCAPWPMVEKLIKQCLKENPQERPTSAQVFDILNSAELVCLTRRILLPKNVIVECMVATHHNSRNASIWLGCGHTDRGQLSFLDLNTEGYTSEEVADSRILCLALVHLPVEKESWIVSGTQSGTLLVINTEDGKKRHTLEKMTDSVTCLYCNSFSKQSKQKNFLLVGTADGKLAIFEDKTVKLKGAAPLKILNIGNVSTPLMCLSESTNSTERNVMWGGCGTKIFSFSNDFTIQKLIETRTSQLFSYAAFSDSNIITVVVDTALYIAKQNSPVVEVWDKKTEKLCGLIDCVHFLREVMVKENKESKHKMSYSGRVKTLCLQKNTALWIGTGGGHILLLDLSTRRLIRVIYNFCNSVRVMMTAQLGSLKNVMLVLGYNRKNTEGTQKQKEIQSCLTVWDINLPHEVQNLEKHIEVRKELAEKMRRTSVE
From the text: Z'-LYTE fluorescence kinase assay, single point on LRKK2

[3] = molecular target: T3, CSF1R (Homo sapiens, UniProt P07333)
T3 construct: commercial kinase panel (Z'-LYTE, Thermo Fisher)
T3 sequence (P07333 20-972): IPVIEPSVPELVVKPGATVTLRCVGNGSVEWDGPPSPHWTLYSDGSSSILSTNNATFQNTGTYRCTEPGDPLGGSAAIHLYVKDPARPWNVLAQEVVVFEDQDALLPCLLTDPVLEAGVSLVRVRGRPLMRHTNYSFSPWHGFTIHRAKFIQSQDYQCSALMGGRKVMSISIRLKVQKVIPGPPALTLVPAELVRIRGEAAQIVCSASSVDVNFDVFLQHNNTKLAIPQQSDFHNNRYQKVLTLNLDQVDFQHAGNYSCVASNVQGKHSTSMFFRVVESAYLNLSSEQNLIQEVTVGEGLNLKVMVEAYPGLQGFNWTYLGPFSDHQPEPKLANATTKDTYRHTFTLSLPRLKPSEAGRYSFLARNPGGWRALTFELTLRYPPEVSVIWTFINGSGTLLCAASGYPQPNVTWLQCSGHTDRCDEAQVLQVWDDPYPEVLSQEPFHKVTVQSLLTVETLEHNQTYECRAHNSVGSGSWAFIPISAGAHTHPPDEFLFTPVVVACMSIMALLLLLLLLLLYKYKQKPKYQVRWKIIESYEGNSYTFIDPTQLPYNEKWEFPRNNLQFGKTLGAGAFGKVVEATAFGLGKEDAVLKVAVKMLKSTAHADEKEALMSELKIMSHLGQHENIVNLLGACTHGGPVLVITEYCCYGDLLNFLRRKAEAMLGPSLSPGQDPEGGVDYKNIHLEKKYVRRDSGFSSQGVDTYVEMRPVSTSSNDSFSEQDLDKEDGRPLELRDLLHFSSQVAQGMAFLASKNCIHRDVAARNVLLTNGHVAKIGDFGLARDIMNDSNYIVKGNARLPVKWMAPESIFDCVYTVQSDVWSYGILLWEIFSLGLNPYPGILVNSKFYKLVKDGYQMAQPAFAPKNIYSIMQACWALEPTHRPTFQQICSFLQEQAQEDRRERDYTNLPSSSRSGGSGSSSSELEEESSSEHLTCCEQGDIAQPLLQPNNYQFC
From the text: Z'-LYTE fluorescence kinase assay, single point on CSF1R

[4] = molecular target: T4, SYK (Homo sapiens, UniProt P43405)
T4 construct: commercial kinase panel (Z'-LYTE, Thermo Fisher)
From the text: Z'-LYTE fluorescence kinase assay, single point on SYK

[5] = molecular target: T5, IRAK4 (Homo sapiens, UniProt Q9NWZ3); settings: read-out: VS7
T5 construct: commercial kinase panel (Z'-LYTE, Thermo Fisher)
T5 sequence (Q9NWZ3 1-460): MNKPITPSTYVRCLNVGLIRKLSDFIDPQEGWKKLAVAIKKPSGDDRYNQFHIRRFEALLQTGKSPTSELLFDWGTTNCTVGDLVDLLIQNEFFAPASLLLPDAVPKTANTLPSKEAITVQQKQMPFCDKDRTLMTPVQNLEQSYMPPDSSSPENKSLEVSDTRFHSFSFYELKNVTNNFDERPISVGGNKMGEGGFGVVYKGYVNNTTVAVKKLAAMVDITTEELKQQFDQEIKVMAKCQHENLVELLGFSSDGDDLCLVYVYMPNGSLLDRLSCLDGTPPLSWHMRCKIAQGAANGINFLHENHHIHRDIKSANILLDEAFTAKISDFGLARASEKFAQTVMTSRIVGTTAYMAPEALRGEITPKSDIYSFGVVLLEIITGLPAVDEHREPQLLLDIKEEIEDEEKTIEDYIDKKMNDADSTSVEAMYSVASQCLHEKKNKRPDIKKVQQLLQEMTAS
From the text: Z'-LYTE fluorescence kinase assay, single point on IRAK4

[6] = molecular target: T6, LCK (Homo sapiens, UniProt P06239); settings: read-out: VS7
T6 construct: commercial kinase panel (Z'-LYTE, Thermo Fisher)
T6 sequence (P06239 2-509): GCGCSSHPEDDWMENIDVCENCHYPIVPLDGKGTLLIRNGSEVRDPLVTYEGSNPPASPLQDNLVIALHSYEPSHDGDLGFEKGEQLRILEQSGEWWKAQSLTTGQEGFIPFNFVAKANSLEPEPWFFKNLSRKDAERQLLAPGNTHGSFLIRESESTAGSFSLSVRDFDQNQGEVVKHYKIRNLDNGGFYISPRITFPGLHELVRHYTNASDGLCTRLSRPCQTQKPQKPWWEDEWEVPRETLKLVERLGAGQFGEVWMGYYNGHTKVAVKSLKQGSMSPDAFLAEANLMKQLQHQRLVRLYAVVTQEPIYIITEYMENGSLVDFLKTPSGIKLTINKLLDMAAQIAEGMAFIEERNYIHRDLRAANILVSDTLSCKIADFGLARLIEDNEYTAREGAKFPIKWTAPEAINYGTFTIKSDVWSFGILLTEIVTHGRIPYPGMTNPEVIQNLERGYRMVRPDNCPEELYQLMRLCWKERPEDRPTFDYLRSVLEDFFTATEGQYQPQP
From the text: Z'-LYTE fluorescence kinase assay, single point on LCK

[7] = molecular target: T7, NTRK1 (Homo sapiens, UniProt P04629); settings: read-out: VS7
T7 construct: commercial kinase panel (Z'-LYTE, Thermo Fisher)
T7 sequence (P04629 33-796): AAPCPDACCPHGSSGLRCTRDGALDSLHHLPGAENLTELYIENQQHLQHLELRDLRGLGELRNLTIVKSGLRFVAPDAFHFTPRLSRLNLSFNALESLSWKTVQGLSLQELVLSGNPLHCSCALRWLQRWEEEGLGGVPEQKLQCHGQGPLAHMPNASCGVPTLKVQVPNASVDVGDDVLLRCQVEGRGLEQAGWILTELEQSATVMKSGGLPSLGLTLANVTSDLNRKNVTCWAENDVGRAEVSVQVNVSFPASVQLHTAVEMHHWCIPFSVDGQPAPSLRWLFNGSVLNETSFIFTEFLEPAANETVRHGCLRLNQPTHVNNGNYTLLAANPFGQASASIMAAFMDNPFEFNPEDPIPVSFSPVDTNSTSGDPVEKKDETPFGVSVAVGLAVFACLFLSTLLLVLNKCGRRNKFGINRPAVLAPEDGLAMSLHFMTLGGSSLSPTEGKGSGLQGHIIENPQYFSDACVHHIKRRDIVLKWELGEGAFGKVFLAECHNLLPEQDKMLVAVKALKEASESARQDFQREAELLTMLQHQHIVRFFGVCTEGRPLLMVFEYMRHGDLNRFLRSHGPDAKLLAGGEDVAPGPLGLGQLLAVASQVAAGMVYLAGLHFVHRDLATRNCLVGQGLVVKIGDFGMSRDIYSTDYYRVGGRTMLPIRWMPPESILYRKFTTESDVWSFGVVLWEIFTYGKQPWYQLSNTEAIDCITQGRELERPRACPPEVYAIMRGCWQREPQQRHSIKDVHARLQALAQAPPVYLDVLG
From the text: Z'-LYTE fluorescence kinase assay, single point on NTRK1

[8] = molecular target: T8, PTK2 (Homo sapiens, UniProt Q05397); settings: read-out: VS7
T8 construct: commercial kinase panel (Z'-LYTE, Thermo Fisher)
From the text: Z'-LYTE fluorescence kinase assay, single point on PTK2

[9] = molecular target: T9, MAPK8 (Homo sapiens, UniProt P45983); settings: read-out: VS6
T9 construct: commercial kinase panel (Z'-LYTE, Thermo Fisher)
From the text: Z'-LYTE fluorescence kinase assay, single point on MAPK8

- inhibition at 10 µM [1]: 74%
- inhibition at 10 µM ([2]; read-out: VS2): 50%
SMILES: O=C(Nc1ccncc1)c1cccc(C(F)(F)F)c1 [VS2]

- inhibition at 10 µM ([2]; read-out: VS3): 54%
SMILES: COc1cc(/C=C(/C#N)C(=O)c2ccccc2)ccc1O [VS3]

- inhibition at 10 µM ([4]; read-out: VS6): 57%
- inhibition at 10 µM ([3]; read-out: VS6): 89%
- inhibition at 10 µM ([2]; read-out: VS6): 60%
- inhibition at 10 µM [9]: 63%
SMILES: c1ccc(Nc2nccc(-c3ccsc3)n2)cc1 [VS6]

Further lines, the compound ahead of its results:

SMILES: Cc1cc(C(=O)Nc2scc(-c3ccc(C)c(C)c3)c2C(N)=O)no1 [VS5]
- inhibition at 10 µM ([3]; read-out: VS5): 54%

SMILES: NC(=O)c1ccc(Nc2nc(NCc3ccco3)c3ccccc3n2)cc1 [VS7]
- inhibition at 10 µM ([4]; read-out: VS7): 90%
- inhibition at 10 µM [5]: 80%
- inhibition at 10 µM [6]: 53%
- inhibition at 10 µM ([3]; read-out: VS6): 89%
- inhibition at 10 µM ([2]; read-out: VS7): 100%
- inhibition at 10 µM [7]: 90%
- inhibition at 10 µM [8]: 66%

Reference: paper PMC11900317, “KinasePred: A Computational Tool for Small-Molecule Kinase Target Prediction” (International Journal of Molecular Sciences, 2025)
